Laboratory results taken from patent publication US20250314869A1, “SYSTEMS AND METHODS FOR HIGH THROUGHPUT SINGLE MOLECULE TRACKING IN LIVING CELLS” (EIKON THERAPEUTICS, INC., priority 2022, published 2025).
Entries after “also recorded” stand apart in the source; their conditions may differ. Read-outs that look alike come from different tables or passages of the source.

Tests used:
ER = ER (Homo sapiens, UniProt P03372); assay: western blot of ER after 24 hours treatment; assay type: cell-based; settings: 24 hours prior to lysis; MCF7, T47d, U2OS ER-HaloTag
Description: Cells were grown in the same conditions as described previously. […] Cells are lysed in 200 μL 1× Cell Lysis Buffer (catalogue number 9803, Cell Signaling). Protein lysate concentration is then determined using BCA protein assay kit (Catalog number 23225, Pierce™ BCA Protein Assay Kit) following manufacturer instructions. Capillary Western Immunoassay were performed using Jess Protein Simple following manufacturer's instruction (protein simple, USA). Levels of αER (1:100, RM-9101) were normalized to loading control β-tubulin (1:100, NC0244815 LI-COR 92642213, Thermo Fisher). The peaks were analyzed with the Compass software (Protein Simple, USA).

Estrogen Receptor (ER) [1] = molecular target: T1, Estrogen Receptor (ER) (Homo sapiens, UniProt P03372); assay: htSMT of Halo-ER in U2OS cells (fbound, Dfree); assay type: cell-based; settings: for change in ER fbound: follow-up of selected compounds
T1 construct: expressed in transfected cells
T1 sequence (P03372 1-595): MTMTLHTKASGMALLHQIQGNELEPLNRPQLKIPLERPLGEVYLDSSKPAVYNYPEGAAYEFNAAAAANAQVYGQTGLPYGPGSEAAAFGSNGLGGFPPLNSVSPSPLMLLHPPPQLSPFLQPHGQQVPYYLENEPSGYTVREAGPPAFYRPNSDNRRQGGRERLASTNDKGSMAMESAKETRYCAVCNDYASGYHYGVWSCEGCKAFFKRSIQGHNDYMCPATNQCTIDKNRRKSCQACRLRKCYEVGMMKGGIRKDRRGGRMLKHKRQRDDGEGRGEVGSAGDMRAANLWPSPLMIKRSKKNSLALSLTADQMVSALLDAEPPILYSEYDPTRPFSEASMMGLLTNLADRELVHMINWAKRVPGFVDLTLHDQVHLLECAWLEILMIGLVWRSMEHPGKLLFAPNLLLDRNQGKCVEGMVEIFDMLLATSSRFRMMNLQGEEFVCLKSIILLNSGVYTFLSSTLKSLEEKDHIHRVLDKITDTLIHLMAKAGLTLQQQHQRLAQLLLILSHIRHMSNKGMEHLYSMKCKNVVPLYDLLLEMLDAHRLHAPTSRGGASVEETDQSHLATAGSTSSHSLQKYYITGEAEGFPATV

Estrogen Receptor (ER) [2] = molecular target: T1, Estrogen Receptor (ER); assay: kinetic SMT (kSMT) of ER after compound addition; assay type: cell-based; settings: 100 nM compound
Estrogen Receptor (ER) [3] = molecular target: T1, Estrogen Receptor (ER); assay: residence time imaging of ER-Halo (track length); assay type: cell-based; settings: versus DMSO, 100 nM HSP90 inhibition
[4] = molecular target: T2, glucocorticoid receptor (GR) (Homo sapiens, UniProt P04150); assay: htSMT of Halo-GR in U2OS cells; assay type: cell-based; settings: 1 μM antagonist, singly or with cognate agonist
T2 construct: Because U2OS cells express GR endogenously; endogenous in cells; host or cells: U2OS, CRISPR/Cas9 knock-in at the endogenous NR3C1 locus
T2 sequence (P04150 1-777): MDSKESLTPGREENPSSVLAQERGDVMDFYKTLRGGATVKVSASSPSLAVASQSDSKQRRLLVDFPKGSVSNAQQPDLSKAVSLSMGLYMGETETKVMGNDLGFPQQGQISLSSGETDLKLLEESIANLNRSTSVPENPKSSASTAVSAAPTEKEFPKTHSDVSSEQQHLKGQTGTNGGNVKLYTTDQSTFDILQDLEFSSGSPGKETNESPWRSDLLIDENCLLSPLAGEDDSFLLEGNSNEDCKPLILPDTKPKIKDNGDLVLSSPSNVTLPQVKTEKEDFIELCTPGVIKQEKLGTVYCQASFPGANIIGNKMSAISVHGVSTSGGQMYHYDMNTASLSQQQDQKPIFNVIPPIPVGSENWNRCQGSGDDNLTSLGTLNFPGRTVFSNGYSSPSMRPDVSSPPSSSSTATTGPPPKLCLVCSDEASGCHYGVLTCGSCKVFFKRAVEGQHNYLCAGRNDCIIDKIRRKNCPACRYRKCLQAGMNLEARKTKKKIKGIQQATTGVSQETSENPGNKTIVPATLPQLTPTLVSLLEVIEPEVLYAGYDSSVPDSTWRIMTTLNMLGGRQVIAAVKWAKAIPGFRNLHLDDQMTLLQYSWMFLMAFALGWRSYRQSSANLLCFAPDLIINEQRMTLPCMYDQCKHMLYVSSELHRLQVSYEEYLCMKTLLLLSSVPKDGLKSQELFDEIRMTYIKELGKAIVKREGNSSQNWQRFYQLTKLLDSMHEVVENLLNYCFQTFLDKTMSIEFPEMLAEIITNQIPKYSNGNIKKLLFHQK
Source text: Where appropriate, compounds were serially diluted in an Echo Qualified 384-Well Low Dead Volume Source Microplate (0018544, Beckman Coulter) to generate dose-titration source material.

androgen receptor (AR) = androgen receptor (AR) (Homo sapiens, UniProt P10275)
Sequence of androgen receptor (AR) (P10275 whole entry): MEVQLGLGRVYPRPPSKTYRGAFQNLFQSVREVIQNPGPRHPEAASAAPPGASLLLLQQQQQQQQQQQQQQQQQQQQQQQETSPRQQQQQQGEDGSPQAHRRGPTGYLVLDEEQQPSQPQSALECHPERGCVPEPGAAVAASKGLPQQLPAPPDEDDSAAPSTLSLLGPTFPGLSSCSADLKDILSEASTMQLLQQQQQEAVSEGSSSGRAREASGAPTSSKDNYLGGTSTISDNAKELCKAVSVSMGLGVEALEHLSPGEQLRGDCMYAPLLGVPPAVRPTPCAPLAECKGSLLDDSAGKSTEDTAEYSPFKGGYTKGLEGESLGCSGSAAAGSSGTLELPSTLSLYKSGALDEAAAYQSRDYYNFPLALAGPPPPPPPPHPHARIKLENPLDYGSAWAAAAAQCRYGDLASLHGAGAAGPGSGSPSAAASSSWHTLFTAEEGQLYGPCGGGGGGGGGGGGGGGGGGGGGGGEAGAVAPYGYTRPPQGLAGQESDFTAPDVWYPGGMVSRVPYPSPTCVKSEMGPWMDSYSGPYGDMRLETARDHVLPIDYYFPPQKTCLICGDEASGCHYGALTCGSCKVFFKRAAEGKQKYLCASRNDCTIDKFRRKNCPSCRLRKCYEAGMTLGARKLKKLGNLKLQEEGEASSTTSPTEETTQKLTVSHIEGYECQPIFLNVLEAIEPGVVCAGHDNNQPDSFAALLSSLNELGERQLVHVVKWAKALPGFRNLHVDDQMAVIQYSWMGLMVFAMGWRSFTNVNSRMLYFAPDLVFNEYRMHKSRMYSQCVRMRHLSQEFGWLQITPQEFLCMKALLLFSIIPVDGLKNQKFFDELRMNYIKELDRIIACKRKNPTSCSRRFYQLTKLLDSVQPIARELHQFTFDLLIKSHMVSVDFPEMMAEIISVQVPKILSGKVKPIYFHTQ

## C[C@]12CC[C@@H]3c4ccc(O)cc4C[C@@H](CCCCCCCCC[S+]([O-])CCCC(F)(F)C(F)(F)F)[C@H]3[C@@H]1CC[C@@H]2O (stereo partly drawn) [fulvestrant]
ER
  ER degradation (western blot): degradation of ER
Estrogen Receptor (ER) [1]; 1 μM compound versus DMSO
  change in ER fbound in bioactive screen: increase in fbound; also recorded: significantly increased fbound

## 4-hydroxytamoxifen
Estrogen Receptor (ER) [1]
  change in ER fbound in bioactive screen: significantly increased fbound
  maximal increase in ER fbound: lower maximal increases in fbound

## CC(C)c1cc(-c2n[nH]c(=O)n2-c2ccc3c(ccn3C)c2)c(O)cc1O [ganetespib]
Estrogen Receptor (ER) [2]
  time at which overall effect on fbound reached a plateau: plateau after an hour
Estrogen Receptor (ER) [1]
  change in ER fbound: increase in fbound
Estrogen Receptor (ER) [3]
  decrease in total number of long binding events: four

## CN(C)c1ccc(C(c2ccc(N(C)C)cc2)c2cc([N+](=O)[O-])ccc2Cl)cc1 [AL082D06]
[4]
  GR chromatin binding (fbound): decrease in chromatin binding

## CC(O)c1cc(C(=O)N[C@@H](C)Cn2ccc(-c3ccc(C#N)c(Cl)c3)n2)[nH]n1 (stereo partly drawn) [Darolutamide]
Androgen receptor (AR)
  AR fbound / chromatin binding: decrease in chromatin binding

## COc1cccc(-c2cc(F)ccc2[C@H]2Cc3nc(N)nc(C)c3C(=O)N2)n1 [HSP990]
Estrogen Receptor (ER) [2]
  time at which overall effect on fbound reached a plateau: plateau after an hour
Estrogen Receptor (ER) [1]
  change in ER fbound: increase in fbound
Estrogen Receptor (ER) [3]
  decrease in total number of long binding events: two
